`COC(=O)COc1ccc2cc(-c3csc(-c4ccccc4)n3)ccc2c1Br`: the melting point is 156 to 159 °C.

`Brc1cnn2c(-c3cccnc3)ccnc12` had a melting point of 243 to 244 °C.

In turn, `CC(C)(O)Cc1cccc(C(F)(F)F)c1` came in with a melting point of 55 to 56 °C.

`CNc1c(CC(C)O)cc([N+](=O)[O-])cc1[N+](=O)[O-]` (stereo not given) had a melting point of 132 °C.

For the compound `N#Cc1[nH]c2ccc(Cl)cc2c1-c1ccccc1`, the melting point was 115 to 117 °C.

On to `Cc1nc2n(c(=O)c1CCN1CCC(C(=O)c3ccc(F)cc3)CC1)CCCS2`, for which the melting point is 165 °C.

For the compound `COC(=O)c1ccc2c(C)csc2c1`, the melting point lay within 46 to 47 °C.

`NC(=NO)c1cc2c(cn1)[nH]c1ccccc12` showed a melting point of 159 to 163 °C.

With `COc1ccc(CC(C)(C)C(=O)O)cc1C(=O)NCc1ccc(C(F)(F)F)cc1`, the melting point lay in the range of 151 to 152 °C.

For the compound `Cn1c2c(c3ccccc31)CC(OC(=O)c1ccccc1)CC2` (stereo not given), the melting point fell in the range of 93 to 96 °C.

As for `Cc1nc2c(N)nc3ccccc3c2n1CCC(N)=O`, the melting point fell in the range of 237 to 239 °C.

Turning to `Cc1c(NC(=O)c2ccc(-c3cccc(NC(=O)C(C)C)c3)cc2)ccc2cc(CN3CCCC3)cnc12`, the melting point fell in the range of 152 to 155 °C.

The compound `CCC(=O)C1=C(O)CC(c2c(C)cc(C)c([N+](=O)[O-])c2C)CC1=O` (stereo not given) gave a melting point of 174 °C.

`CC1Sc2nccn2C1(C)C(O)CCc1ccco1` (stereo not given) yielded a melting point of 144 to 145 °C.

For `COc1cc(C)c(C(=O)c2c(Cl)cccc2Cl)cc1Oc1ccccc1`, the melting point stood at 89 °C.

Compound `COc1c(-c2ccc3cc(NS(C)(=O)=O)ccc3c2)cc(-n2ccc(=O)[nH]c2=O)cc1C(F)(F)C(F)(F)F` came in with a melting point of 162 to 165 °C.

As for `CC1=NN(c2ccccc2)C(=O)C1C=O` (stereo not given), the melting point was in the range of 178 to 180 °C.

Compound `Cc1cc(C(=O)NCO)ncc1C(c1c(F)ccc(F)c1F)S(=O)(=O)CCC(C)(F)F` (stereo not given) showed a melting point of 161 to 162 °C.

Compound `COc1ccc2c(c1)c1c(n2Cc2ccccc2)CCCC1C(=O)N1CCN(c2ccccc2)CC1` (stereo not given) registered a melting point of 142 to 143 °C.

Compound `COc1ccc(C2=NN(c3ccc(C(=O)Nc4ccc(C5=NNC(=O)CC5C)cc4)cc3)C(=O)C3CC=CCC23)cc1OC` (stereo not given) showed a melting point of 249 to 250 °C.

For `CNCc1cc2c(=O)c(C(=O)NCc3ccc(Cl)cc3)cn(C)c2s1`, the melting point fell in the range of 196 to 199 °C.

For `Clc1ccc(-c2cnn3cnnc3n2)cc1`, the melting point was greater than 300 °C.

The compound `O=C1N(Cc2ccc3c(c2)OCCO3)c2ccccc2C12COc1cc3c(cc12)OCCO3` (stereo not given) came in with a melting point of 120 to 123 °C.

`Nc1cn(-c2cncnc2)nc1Cl` had a melting point of 146 to 148 °C.

With `CCCCc1nc2c(N)nc(C)c(C)c2n1CCCCCS(N)(=O)=O`, the melting point was 130 °C.

For `Cc1cc(-c2nnc3c4ccccc4c(OCc4ccccn4)nn23)no1`, the melting point fell in the range of 234 to 236 °C.

`CC(C)Cn1cnc2c(N)nc3ccc(CCCCc4ccccc4)cc3c21` yielded a melting point of 176 to 177 °C.

Consider `COC1(c2cnc(Sc3ccc(/C(C)=N/O)cc3)s2)CCOCC1`, for which the melting point lay within 114 to 116 °C.

Compound `CCCCNC(=O)c1nc2ccc(OC)cc2[nH]1` showed a melting point of 125 to 126 °C.

The compound `CN(C)CCC(c1ccccc1)c1ncc[nH]1` (stereo not given) returned a melting point of 135 to 136 °C.

In turn, `CC1(C)Cc2nc(N)sc2C(C)(C)C1` gave a melting point of 120 to 122 °C.

`O=Cc1cnc(Sc2nc3ccccc3[nH]2)s1`: the melting point was found to be 188 °C.

The compound `O=C(c1cccnc1)c1cc(-c2ccccc2)c(N2CCOCC2)s1` showed a melting point of 180 °C.

For `CN(C)C(=S)n1c(SC(F)(F)C(F)F)nc(-c2ccccc2)c1-c1ccccc1`, the melting point is 133 to 134 °C.

Regarding `CC(=O)NC[C@H]1CN(c2ccc(N3CCC(COc4ccon4)CC3)c(F)c2)C(=O)O1`, the melting point is 163 to 165 °C.

`CCCc1c(OCCCCCC(=O)c2c(C)c(C)c(O)c(O)c2C)ccc(C(=O)O)c1O` had a melting point of 169 to 170 °C.

`CN(Cc1ccccc1)c1cc(Cl)c(C=O)c(Cl)c1`: the melting point lay in the range of 66 to 70 °C.

For the compound `CN1C2C=C(c3cc4ccccc4s3)CC1CCC2` (stereo not given), the melting point lay within 91.3 to 93.5 °C.

`CCOC(=O)CCN1C(=O)C(NC(=O)OCc2ccccc2)N=C(c2ccccc2)c2ccccc21` (stereo not given) registered a melting point of 57 to 59 °C.

As for `CN1C(=O)N(c2ccc(Cl)cc2)S(=O)(=O)c2ccc(OCC3CCCCC3)cc21`, the melting point lay in the range of 127 to 129 °C.

`COc1cc(OC)nc(-n2nc(SC)n(N)c2=O)n1` returned a melting point of 198 °C.

Compound `CCOC(=O)C(Cc1ccccc1)NC(=O)c1cc2cc(Cl)ccc2[nH]1` (stereo not given) displayed a melting point of 146 to 147 °C.

Compound `Oc1cc2c3cc(O)c(O)cc3n(Cc3ccccc3)c2cc1O` showed a melting point of 266 to 271 °C.

Regarding `O=c1c2cc(F)c(Cl)nc2n(-c2ccc(C(F)(F)F)cc2)c(=O)n1OCc1ccccc1`, the melting point is 245 to 246 °C.

Consider `Cc1cc2c(s1)S(=O)(=O)N(C)C(=O)C2C(=O)Nc1ccccc1` (stereo not given), for which the melting point is 184 to 185 °C.

Take `Cc1ccc(CSc2c(O)cc(C)oc2=O)cc1`: the melting point was in the range of 134 to 135 °C.

In turn, `O=C(O)CCc1cccc(C(=O)c2ccccc2)c1` gave a melting point of 70 °C.

With `CCCCCCC/C=C\CCCCCCCC(=O)CCCNC(C)=O`, the melting point is 51 to 52 °C.

On to `CC(C)(C)NC(=O)[C@@H]1C[C@H](O)CN1C(=O)OCc1ccccc1`, for which the melting point lay within 129 to 130 °C.

Turning to `C=CCOc1ccccc1OCC(O)CN1CCC(N2CCCNC2=O)CC1` (stereo not given), the melting point was 122 to 125 °C.

As to `CNC(=O)ON=CC=NOC(C)=O`, the melting point amounted to 138 °C.

As to `O=C1N(Cc2noc(C(F)(F)F)n2)c2ccccc2C12COc1cc3c(cc12)OCO3` (stereo not given), the melting point lay in the range of 139 to 140 °C.

Consider `CC(=Cc1ccccc1)c1ccc2c(c1)C(C)(C)CCS2(=O)=O`, for which the melting point fell in the range of 156 to 158 °C.

Regarding `COc1ccc(-c2cc3cc(F)c(F)cc3[nH]2)cc1NCc1cccc([N+](=O)[O-])c1`, the melting point was 212 to 214 °C.

`Cc1nc(N2CCN(Cc3ccccc3)C2=O)sc1C(=O)NCc1cc(F)ccc1F` showed a melting point of 176 to 177 °C.

`Oc1ccc(-c2ccc3c(-c4ccccc4)c(O)ccc3c2)cc1` came in with a melting point of 142 to 146 °C.

For `CC(=O)OCCc1ccc(NC(=O)OCc2ccccc2)cc1`, the melting point was 148 to 149 °C.

The compound `COc1cccc(C=C2c3ccccc3CCc3ccccc32)c1` came in with a melting point of 83 °C.

Compound `COC(=O)CS(=O)(=O)Nc1ccc(F)c(C(F)(F)F)c1` came in with a melting point of 111 to 112 °C.

`N#CCc1cc(F)cc(Cc2nc3c(F)c(F)cc(F)c3s2)c1` showed a melting point of 91 to 94 °C.

`CCOC(=O)CCCCCSc1nnc(S)s1`: the melting point fell in the range of 79 to 80 °C.

`COc1ccc([C@@H]2CN(C)CC[C@@H]2NC(=O)c2ccccc2)cc1` (relative stereo) came in with a melting point of 164 to 165 °C.

For `Cc1ccc(S(=O)(=O)NCCCCOc2ccc(C#N)cc2)cc1`, the melting point was 107 to 108 °C.

`Fc1ccc(N2CCN(Cc3cn4cc(Cl)ccc4n3)CC2)cc1` showed a melting point of 130 to 131 °C.

`COc1ccc(CCC(=O)Nc2ccccc2C(=O)O)cc1OC` registered a melting point of 137 °C.

As a reminder, the melting point is the temperature of the solid-liquid transition.

(Values after a melting point compilation (Tetko et al.; mined from patent text by program, amines drawn as free bases though some values may be those of a salt).)
